In PMC6261607, “Novel high–throughput myofibroblast assays identify agonists with therapeutic potential in pulmonary fibrosis that act via EP2 and EP4 receptors” (PLoS ONE, 2018):
Where two headings read alike, the source gives them in different places.

Legend:
[1] = system: α–SMA protein in TGF–β1–induced NHLF myofibroblasts; experiment: MS/MS α–SMA, NHLF myofibroblast reversal assay; type: cell-based, human
Procedure: (§1) Cell culture medium was removed and cells were lysed on ice by adding 5 μl / well of pre–cooled protein extraction buffer containing 10 mM Tris–HCl (pH 8.0), 6 M urea and 2 M thiourea and shaking on ice on a plate shaker at 600 rpm for 30 min.
(§2) Cell lysate was transferred to a 96–well polypropylene–PCR–plate. 15 μl / well denaturation buffer (6 M urea, 50 mM ammonium bicarbonate) and 2 μl / well of 50 mM TCEP were added and samples were denatured for 1 h at 60°C using the Veriti 96–well Fast Thermal Cycler System (Applied Biosystem) with a heated lid. Plates were allowed to cool to RT. Subsequently, 2 μl of 100 mM iodoacetamide were added per well to derivatize cysteine residues. Plates were then sealed and vortexed for 2 min in the dark and incubated for 30 min at 37°C in a thermal cycler with a heated lid. 90 μl of 50 mM ammonium bicarbonate pH 7.8 were added, followed by the addition of 10 μl of trypsin at 0.02 μg / ml. Samples were trypsin–digested overnight at 37°C in a thermal cycler with heated lid. […] Samples were desalted under vacuum using an Oasis HLB 96–well (30 μm particle size, 5 mg sorbent / well) reverse phase cartridge according to the manufacturer’s instructions and eluted with 170 μl of 90% acetonitrile, 0.1% formic acid. Samples were dried down with a flow of nitrogen at 40°C, left to cool to RT and re–suspended in 40 μl 5% acetonitrile, 0.1% formic acid on a plate shaker set to 1400 rpm for 5 min. Plates were centrifuged at 4,000 rpm for 10 min and 2 times 12 μl / well of supernatant were transferred into separate 96–well plates (Greiner Bio–One), sealed and stored at 4°C until analyzed by MS / MS.
(§3) Surrogate tryptic peptides were chosen for detection of COL1 (COL1A1), α–SMA (ACTA) and tubulin (TBA1A1) and crude synthetic peptides were purchased from Thermo Fischer. After several rounds of optimization following standard workflows, […] (COL1 / COL1A1), […] (α–SMA / ACTA) and […] LC–MS / MS analysis was performed on a RapidFire™ RF360 system (Agilent Technologies) coupled to an API 5500 (ABSciex) with positive ion electrospray ionization. […] Detection was performed using multiple reaction monitoring (MRM) mode to monitor parent⟶product ion transitions (m / z). […] The source parameters were curtain gas (CUR) nitrogen: 20 psig; collision gas (CAD): 7 psig; ion source gas 1: 50.0 psig; ion source gas 2: 50.0 psig; ion spray voltage (IS): 5500 V; turbo heater temperature (TEM): 600°C; entrance potential (EP): 10V. Peak areas for COL1A1 and ACTA were normalized by dividing by TBA1A peak area.
(§4) To identify compounds with potential to revert differentiated myofibroblasts to fibroblasts the assay procedures were modified. After 24 h starvation, NHLF cells were stimulated with 5 ng / ml TGF–β1 for 24 h. At t = 24 h TGF–β1 was removed and either vehicle (DMSO) or compounds were added and incubated with the cells for a further 72 h.

[2] = system: COL1 protein in TGF–β1–induced NHLF myofibroblasts; experiment: MS/MS COL1, NHLF myofibroblast reversal assay; type: cell-based, human
Procedure: as §1, §2, §3, §4

[3] = system: normal human lung fibroblasts (NHLF); experiment: Phenotypic high-content assay (HCA) of TGF–β1–induced fibroblast–to–myofibroblast differentiation; type: cell-based; settings: NHLF, 5 ng/ml TGF–β1 for 48 h, compound added with TGF–β1, mean ± SD, read-out: HCA IC50
Procedure: (§5) The plate was washed 3 times with starvation medium, e.g. fibroblast basal medium (FBM, Lonza) supplemented with 0.1% faf BSA, 100 units / ml of penicillin and 100 μg / ml of streptomycin and 250 ng / ml amphotericin B, and then starved for 24 h in 30 μl volume. NHLF were differentiated into myofibroblasts by incubation with 5 ng / ml TGF–β1 (from a stock of 20 μg / ml in 4 mM HCl, 1 mg / ml BSA) for 48 h. Compounds were prepared as 5x stocks in starvation medium and added to the starved cells to a final 1x concentration concomitant with TGF–β1 addition. The final DMSO concentration in the assay was 0.6% in all wells. 48 h after TGF–β1 addition, the medium was removed and the cells were fixed in methanol for 10 min at room temperature (RT). After fixation, cells were washed 3 times with 1 x PBS and either stored at 4°C for up to 3 days or further processed. […] Images were acquired on the Opera Phenix confocal high–content screening system (Perkin Elmer) using the 20–x water immersion lens.
(§6) DAPI stained nuclei were used to identify cells. α–SMA and FN regions were then identified and mapped to the corresponding nuclei for background correction, cell segmentation and cell feature computation to identify, classify and weigh over 400 features per cell. The computed features (S1 Table) comprise, but are not limited to, granularity, intensity, texture, area, shape and solidity of a cell in both α–SMA–and FN–expressing regions. The 0% compound effect (5 ng / ml TGF–β1) and the 100% compound effect (0 ng / ml TGF–β1) controls, were used to train and validate a support vector machine (SVM), a supervised learning model with associated learning algorithm that, once successfully validated, was applied to every cell in every well of the assayed microtiter plate. The SVM allowed autonomous weighting and classification of the characteristics and thus enabled the classifier to decide which characteristics were most relevant for the differentiation of the cell types. […] The classification of each cell was aggregated to a cell type ratio per well, represented as the computed percentage effect value per well indicative of the degree of myofibroblast differentiation. E.g. 100% equals complete myofibroblast differentiation, 0% indicates a pure fibroblast population without any signs of differentiation.

[4] = system: COL1 protein in NHLF cells; experiment: RapidFire MS/MS quantification of COL1 (IPQA), standard assay; type: cell-based, human; settings: NHLF, 5 ng/ml TGF–β1, lysed 48 h after TGF–β1, normalized to tubulin, mean ± SD, read-out: MS / MS COL1 IC50
Procedure: as §1, §2, §3

[5] = system: α–SMA protein in NHLF cells; experiment: RapidFire MS/MS quantification of α–SMA (IPQA), standard assay; type: cell-based, human; settings: NHLF, 5 ng/ml TGF–β1, lysed 48 h after TGF–β1, normalized to tubulin, mean ± SD, read-out: MS / MS α–SMA IC50
Procedure: as §1, §2, §3

[6] = system: normal human lung fibroblasts (NHLF); experiment: Impedance measurement of TGF–β1–induced myofibroblast transition (IPQA), standard assay; type: cell-based; settings: 5 ng/ml TGF–β1, compound added with TGF–β1, impedance at t = 20 h post TGF–β1, mean ± SD, read-out: Impedance IC50
Procedure: (§7) To measure dynamic cell shape and adhesion changes during fibrotic transdifferentiation, NHLF were seeded at a density of 20,000 cells per well in FGM–2 growth medium (Lonza) containing 100 units / ml of penicillin and 100 μg / ml of streptomycin into E–plates with continued impedance signal measurement (xCELLigence system, Roche Applied Science). After overnight growth, the medium was exchanged for FBM (Lonza) supplemented with 100 units / ml of penicillin and 100 μg / ml of streptomycin and 0.1% faf BSA and cells were starved for 32 h. Compound dilution series were added and myofibroblast transition was induced by adding TGF–β1 at a concentration of 5 ng / ml, followed by continued impedance sampling for up to 48 h. For data analysis, impedance raw traces were normalized to the time point of compound addition and the baseline response (DMSO, non–TGF–β1 treated cells) was subtracted. In some cases, impedance values at defined time points were used to generate concentration–response curves to determine compound potency and efficacy using GraphPad Prism software version 7 (GraphPad Software Inc).

[7] = system: TGF–β1–induced NHLF myofibroblasts; experiment: cells; type: cell-based; settings: reversal assay: 24 h 5 ng/ml TGF–β1, washed, then compound; impedance data at t = 20 h
Procedure: as §7, §4

[8] = system: rat lung myofibroblasts (RLMyoF); experiment: Impedance in primary myofibroblasts from fibrotic rat lungs; type: cell-based, Wistar rat; settings: S8 Fig
Procedure: Isolation of fibroblasts from the right middle lung lobe of bleomycin–instilled 20–month old Wistar rats. […] On day 0, rats (n = 3) were anesthetized with isoflurane and instilled intra–tracheally with 315 mg of bleomycin sulfate (Baxter) in a volume of 210 μl followed by 210 μl of air to equally distribute the substance in the lung. On day 28, rats were euthanized using isoflurane (5%), exsanguinated and right lung middle lobes (RML) were collected in a sterile culture dish on ice in Dulbecco's Modified Eagle's Medium (DMEM) / F12 (1:1, Thermo Fisher), minced, washed 3 times with DMEM / F12 medium and digested with 0.1% collagenase (Collagenase II–S: Invitrogen) and 15 μg / ml DNase (DNase I, Sigma) in DMEM / F12 medium in a shaking water bath at 37°C for 15 min. Digests were separated by gravity and the supernatant was transferred to a new vial supplemented with 4 volumes of ice–cold starter medium consisting of DMEM / F12 (1:1), 10% (v / v) fetal bovine serum (PAA), 1% (v / v) penicillin / streptomycin 100 U / 100 μg / ml (Thermo Fisher), and insulin / transferrin / sodium selenite (Thermo Fisher). Then, the cell suspension was passed through a cell strainer by centrifugation at 1600 rpm at 4°C for 10 min. The pelleted cells were resuspended in pre–warmed (37°C) starter medium and seeded in a cell culture dish. After 60 minutes, the medium was replaced by new starter medium. After 24 hours, the medium was exchanged for DMEM / F12 to which 10% (v / v) fetal bovine serum and 1% penicillin / streptomycin was added.

[9] = system: normal human lung fibroblasts (NHLF); experiment: Nuclear count in the HCA, standard assay; type: cell-based; settings: standard HCA, NHLF, 5 ng/ml TGF–β1, 48 h; read-out: Nuclear count IC50
Procedure: as §5, §6

Row | Structure (SMILES) | IC50 [3] | IC50 [4] | IC50 [5] | IC50 [6] | IC50 ([3]; Homo sapiens, Fibroblast, 48 h) | IC50 ([5]; Homo sapiens) | IC50 ([6]; Fibroblast) | IC50 ([4]; Homo sapiens, Col1) | other results
1 | C=C[C@@]1(C)CC(=O)[C@]2(O)[C@@]3(C)[C@@H](O)CCC(C)(C)[C@@H]3[C@H](O)[C@H](OC(C)=O)[C@@]2(C)O1 [Forskolin] |  |  |  |  |  |  |  |  | IC50 ([1]; Homo sapiens, NHLF pre–stimulated 24 h with 5 ng/ml TGF–β1, representative experiment, S7 Fig D, read-out: IC50, reversal of α–SMA (curve of a single experiment)): 5.12 µM; IC50 ([2]; Homo sapiens, Col1, NHLF pre–stimulated 24 h with 5 ng/ml TGF–β1, representative experiment, S7 Fig E, read-out: IC50, reversal of COL1 (curve of a single experiment)): 1.73 µM
2 | CCn1c(-c2nonc2N)nc2cnc(Oc3cccc(NC(=O)c4ccc(OCCN5CCOCC5)cc4)c3)cc21 [GSK–269962] | 0.24 ± 0.27 µM | 3.1 µM | 0.022 ± 0.001 µM | 1.01 µM |  |  |  |  | IC50 ([1]; reversal assay: 24 h 5 ng/ml TGF–β1, washed, 72 h compound, normalized to tubulin, read-out: MS / MS α–SMA IC50): 0.035 µM; IC50 ([2]; reversal assay: 24 h 5 ng/ml TGF–β1, washed, 72 h compound, normalized to tubulin, read-out: MS / MS COL1 IC50): 0.537 µM; IC50 [7]: > 10 µM; IC50 ([8]; read-out: RLMyoF impedance IC50 (3 h), impedance at 3 h): 0.011 µM; IC50 ([8]; read-out: RLMyoF impedance IC50 (20 h), impedance at 20 h): 0.133 µM; IC50 [9]: > 50 µM
3 | O=C1c2ccc(Nc3ccc(F)cc3F)cc2CCc2ccc(OC[C@H](O)CO)cc21 [L–skepinone] |  |  |  |  | 23 µM | 0.96 ± 0.44 µM | 5 µM |  | IC50 ([4]; Homo sapiens, Col1, 48 h): 1.5 µM
4 | COc1cccc(-c2cc(=O)c3ccccc3o2)c1N [PD98059] | > 46 µM | > 50 µM | 50 µM | 19 µM |  |  |  |  | 
5 | Cn1c(=O)c(Oc2ccc(F)cc2F)cc2cnc(NC(CCO)CCO)nc21 [Pamapimod] |  |  |  |  | > 46 µM | 34 µM | 19 µM | > 50 µM | 
6 | O=C(NCc1cccc(O)c1)Nc1nc(-c2ccncc2)cs1 [RKI 1447] | 4.3 µM | 12.2 µM | 0.15 ± 0.022 µM | 8.4 µM |  |  |  |  | 
7 | Cc1cccc(-c2[nH]c(C(C)(C)C)nc2-c2ccc3nccnc3c2)n1 [SB525334] | 2.5 µM | 0.38 ± 0.11 µM | 0.09 ± 0.005 µM | 0.12 ± 0.025 µM |  |  |  |  | 
8 | Oc1c2ccccc2c2c3c(cccc13)N=N2 [SP600125] |  |  |  |  | > 46 µM | 38 µM | 48.5 µM | 36 µM | 
9 | CC[C@@H](C(=O)[C@@H](C)[C@@H](O)[C@H](C)[C@@H]1O[C@@H]([C@@H](CC)C(=O)O)CC[C@@H]1C)[C@H]1O[C@]2(C=C[C@@H](O)[C@]3(CC[C@@](C)([C@H]4CC[C@](O)(CC)[C@H](C)O4)O3)O2)[C@H](C)C[C@@H]1C [Salinomycin] |  |  |  |  |  | 0.29 ± 0.3 µM | 1.5 µM | 1.2 µM | IC50 ([3]; Homo sapiens, Fibroblast): 15.8 µM
10 | CCOc1cc(N2CCC(O)CC2)ccc1Nc1ncc2c(n1)N(C)c1ccccc1C(=O)N2C [XMD 8–92] | 12 µM | 5.4 µM | 2.4 µM | 4.4 µM |  |  |  |  | 
